Results taken from paper PMC8367944, “Phase 1 study of the ATR inhibitor berzosertib in combination with cisplatin in patients with advanced solid tumours” (British Journal of Cancer, 2021).
“Also recorded” adds a separate entry of the source. Where two headings read alike, the source gives them in different places.

Columns and labels:
[1] = Plasma and urine pharmacokinetics of berzosertib (LC-MS/MS, non-compartmental analysis); type: in vivo, human; details: for AUC(0-inf) / clearance / Cmax / half-life / Vd: plasma; for AUC(0-inf): read-out: AUC0–∞, mean (%CV); for clearance: read-out: CL, mean (%CV) (converted); for Cmax: read-out: Cmax, mean (%CV); for Vd: read-out: Vss, mean (%CV)
Method: In cycle 1, plasma samples for PK analysis were collected both pre- and post-dose on days 2–5 (pre-dose, 0.5 h before the end of infusion, at the end of infusion, and 0.5, 1, 2, 3, 7, 23, 47, and 71 h after end of infusion) and day 9 (pre-dose). Plasma samples were also collected on day 2 of cycle 2 (pre-dose and 2 h after the end of infusion). Cumulative urine was also collected for PK assessments on days 2 and 3 of cycle 1 (pre-dose to 3, 3–7, 7–11, and 11–23 h). Berzosertib concentrations were quantified using a validated liquid chromatography tandem-mass spectrometry method and plasma PK were characterised by non-compartmental analyses using Phoenix WinNolin 6.4 (Certara USA Inc., Princeton, NJ, USA).
The safety set was defined as all patients who received at least one dose of study drug; patients within the safety set were further classified into those who received at least one dose of the study drug in the lead-in period (lead-in safety set) and those who received at least one dose during the combination period (combination safety set). PK data were collected in the PK analysis set, defined as all enrolled patients who received at least one dose of berzosertib and provided at least one measurable post-dose sample. For efficacy analyses, the full analysis set was used, comprising all enrolled patients who had received a baseline scan, at least one dose of study drug, and had at least one post-baseline disease assessment.
Standard non-compartmental methods were used to determine PK parameters. Continuous variables were summarised using descriptive summary statistics. Categorical variables (e.g. incidence of a TEAE) were summarised using frequency counts and percentages. TEAEs observed were summarised by system organ class and preferred term according to the Medical Dictionary for Regulatory Activities v.18.0 or higher.

[2] = system: patients with advanced solid tumours; assay: Phase 1 safety and tolerability: TEAEs (NCI CTCAE v4.0), DLTs, MTD/RP2D; type: in vivo
Method: Part B was a single-arm, 3 + 3 dose-escalation Phase 1 study evaluating the safety, tolerability and PK of berzosertib in combination with cisplatin in patients with advanced solid tumours.
Following screening and baseline evaluations, patients received berzosertib i.v. (90 mg/m^2; days 2 and 9) and cisplatin (40 mg/m^2; day 1), administered in 21-day cycles. Based on safety data from two concurrent studies,[14],[15] a 7- to 14-day lead-in period with single doses of berzosertib (140 mg/m^2) alone was also planned.
For the initial dose escalation, the dose of cisplatin was held constant, while the dose of berzosertib was escalated by a maximum of 50% in each cohort. After the berzosertib dose was escalated, the dose of cisplatin could be increased in order to find the maximum-tolerated dose (MTD) of berzosertib in combination with cisplatin; the MTD was defined as the highest dose of berzosertib tolerated in combination with a cisplatin dose between 60 and 100 mg/m^2, inclusive. […] Patients received berzosertib with cisplatin until progressive disease (PD) or unacceptable toxicity.
Safety evaluations (primary endpoint) included continuous assessment of TEAEs, which were graded using National Cancer Institute Common Terminology Criteria for Adverse Events version 4.0. […] Safety was evaluated throughout treatment and was used to inform dose-escalation decisions. […]

[3] = system: patients with advanced solid tumours; details: on second infusion of berzosertib; idiosyncratic, no clear relationship to dose; stated as recognised, no reference given; cited from earlier work
ATR = system: ATR; parameters: method as in PMID 25010037; details: ATR inhibitor; cited from earlier work
[4] = human, intravenous, cycle 1, day 2, berzosertib and cisplatin, berzosertib 90 mg/m^2, n = 2
[5] = human, intravenous, cycle 1, day 2, berzosertib and cisplatin, berzosertib 140 mg/m^2, n = 8
[6] = human, intravenous, cycle 1, day 2, berzosertib and cisplatin, berzosertib 210 mg/m^2, n = 17
[7] = human, iv, 140 mg/m2, lead-in period, berzosertib alone, 140 mg/m^2 i.v., n = 4

Q: With `CNCc1ccc(-c2cc(-c3nc(-c4ccc(S(=O)(=O)C(C)C)cc4)cnc3N)on2)cc1` [berzosertib] as the compound, how does the “dose proportionality of plasma exposure” value ([1]; 90–210 mg/m^2, based on mean plasma concentrations and Cmax) read?
A: The value was “approximately dose proportional”.

Q: What about the “effect of cisplatin on berzosertib pharmacokinetics” value ([1]; cisplatin given 24 h before berzosertib) of the same compound?
A: Its value is “no apparent effect; also recorded: does not affect the PK profile”.

Q: And the “mean percentage of berzosertib excreted in the urine” value ([1]; cumulative urine, days 2 and 3 of cycle 1)?
A: Its value is 6%.

Q: What about the CL renal ([1]; human, intravenous, cumulative urine, days 2 and 3 of cycle 1, read-out: mean renal clearance (converted)) of the same compound?
A: The CL renal was 78.3 mL/min.

Q: What about the AUC(0-inf) [1, 4] of the same compound?
A: The AUC(0-inf) was 2820 ng·h/mL.

Q: What about the clearance [1, 4] of the same compound?
A: Its clearance is 1020 mL/min.

Q: What about the Cmax [1, 4] of the same compound?
A: The Cmax was 458 ng/mL.

Q: And the half-life ([1]; human, intravenous, cycle 1, day 2, berzosertib and cisplatin, berzosertib 90 mg/m^2, n = 2, read-out: T1/2, mean (%CV) (converted))?
A: Its half-life is 17 h.

Q: And the Vd [1, 4]?
A: The Vd was 1260 L.

Q: And the AUC(0-inf) [1, 5]?
A: The AUC(0-inf) was 4870 ng·h/mL.

Q: What about the clearance [1, 5] of the same compound?
A: The clearance was 912 mL/min.

Q: And the Cmax [1, 5]?
A: Its Cmax is 854 ng/mL.

Q: What about the Vd [1, 5] of the same compound?
A: The Vd was 1060 L.

Q: And the AUC(0-inf) [1, 6]?
A: The AUC(0-inf) was 6740 ng·h/mL.

Q: What about the clearance [1, 6] of the same compound?
A: The clearance was 1040 mL/min.

Q: And the Cmax [1, 6]?
A: Its Cmax is 1230 ng/mL.

Q: And the Vd [1, 6]?
A: Its Vd is 1270 L.

Q: And the AUC(0-inf) [1, 7]?
A: Its AUC(0-inf) is 5670 ng·h/mL.

Q: And the clearance [1, 7]?
A: The clearance was 898 mL/min.

Q: What about the Cmax [1, 7] of the same compound?
A: Its Cmax is 652 ng/mL.

Q: And the half-life ([1]; human, intravenous, 140 mg/m^2, berzosertib monotherapy, four patients, read-out: mean terminal elimination half-life (converted))?
A: The half-life was about 17 h.

Q: And the half-life ([1]; human, intravenous, 140 mg/m^2, plasma, cycle 1, day 2, berzosertib and cisplatin, berzosertib 140 mg/m^2, n = 8, read-out: T1/2, mean (%CV) (converted))?
A: The half-life was 17.5 h.

Q: What about the half-life ([1]; human, intravenous, 210 mg/m^2, plasma, cycle 1, day 2, berzosertib and cisplatin, berzosertib 210 mg/m^2, n = 17, read-out: T1/2, mean (%CV) (converted)) of the same compound?
A: The half-life was 17.3 h.

Q: And the half-life ([1]; human, iv, 140 mg/m2, plasma, lead-in period, berzosertib alone, 140 mg/m^2 i.v., n = 4, read-out: T1/2, mean (%CV) (converted))?
A: The half-life was 20.3 h.

Q: What about the “DLTs during the monotherapy lead-in period” value ([2]; berzosertib 140 mg/m^2 alone, n = 4) of the same compound?
A: The value was “no DLTs”.

Q: And the “trends in laboratory results, vital signs or ECG parameters attributable to berzosertib” value ([2]; serum chemistry, haematology, urinalysis)?
A: The value was “no clinically meaningful trends”.

Q: And the “patients with acute hypersensitivity” value [3]?
A: The value was under 5%.

Q: What about the IC50 (ATR) of the same compound?
A: Its IC50 is 19 nM.
